# Source: US20170168073A1, “CHALCONE-UREA DERIVATIVES AS INSULIN SENSORS” (Agency for Science, Technology and Research, priority 2013, published 2017)
# Assays:
# serum albumin = assay: Selectivity of fluorescence response to insulin over serum albumins (BSA, HSA, HSA lipid free); format: binding; settings: over serum albumin (BSA, HSA, HSA lipid free; FIG. 1c)
# Text: FIG. 1c is a graph showing the selectivity of Insulin Green to insulin over bovine serum albumin (BSA), human serum albumin (HSA) and HSA lipid free.
# insulin = insulin (Homo sapiens, UniProt P01308); assay: Fluorescence response of CLU compounds to insulin; format: binding
# Chain of insulin (P01308 25-54 limits assumed, species assumed): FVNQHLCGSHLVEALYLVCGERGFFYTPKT
# Chain of insulin (P01308 90-110 limits assumed, species assumed): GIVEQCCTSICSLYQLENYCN
# Experimental: All the reagents and solvents were purchased from Aldrich, Alfa and Acros organics and used without further purification. All reactions were performed in oven-dried glassware under a positive pressure of nitrogen. Analytical TLC was carried out on Merck 60 F254 silica gel plate (0.25 mm layer thickness) and visualization was done with UV light. Column chromatography was performed on Merck 60 silica gel (230-400 mesh). NMR spectra were recorded on a Bruker Avance 300 NMR spectrometer. Chemical shifts are reported as 6 in units of parts per million (ppm) and coupling constants are reported as a J value in Hertz (Hz). Mass of all the compounds was determined by LC-MS of Agilent Technologies with an electrospray ionization source. Spectroscopic measurements were performed on a fluorometer and UV/VIS instrument, Synergy 4 of bioteck company and Gemini XS fluorescence plate reader. The slit width was 1 nm for both excitation and emission.
# The present invention includes the synthesis of fluorescent chalcone-urea library (CLU), which was prepared on solid support. The CLU library was screened against four different concentrations of insulin (0.2, 0.1, 0.05 and 0.025 mg/mL) in HEPES buffer (20 mM, pH=7.4). Based on fluorescent intensity, 5 hits with more than 50-fold increase were selected (Table 2). CLU-381 was further derivatized due to the synthetic convenience to render 8 derivatives (Table 3).
structure (smiles),measurement,setting,value
COc1ccc(CNC(=O)Nc2ccc(C(=O)/C=C/c3ccc(N(CCO)CCO)cc3)cc2)cc1 [Insulin Green],selectivity for insulin over other proteins,serum albumin,good selectivity over other proteins
same,fluorescent increase to insulin,insulin; 200 μg/mL insulin (FIG. 1a),94 fold
same,responsiveness to insulin among the 8 CLU-381 derivatives,insulin; 8 derivatives tested against insulin,most responsive compound
